We go through 20 compounds from BindingDB's records for doi:10.1016/j.bioorg.2014.07.012 (Kurukshetra University, 2014).

One test concerns the target T1, Cathepsin H (Capra hircus, UniProt A0A060INS8).
T1 sequence (A0A060INS8 whole entry): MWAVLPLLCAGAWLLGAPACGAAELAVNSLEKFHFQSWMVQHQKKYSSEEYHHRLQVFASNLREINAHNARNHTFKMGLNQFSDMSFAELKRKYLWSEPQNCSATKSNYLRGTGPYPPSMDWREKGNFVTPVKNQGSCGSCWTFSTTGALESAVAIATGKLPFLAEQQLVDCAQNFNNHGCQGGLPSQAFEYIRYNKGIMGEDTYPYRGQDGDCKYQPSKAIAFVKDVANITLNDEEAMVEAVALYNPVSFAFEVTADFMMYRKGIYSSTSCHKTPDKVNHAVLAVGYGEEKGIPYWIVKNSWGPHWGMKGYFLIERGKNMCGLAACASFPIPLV
Briefly: Enzymatic activity assay. The note with it: pH 6; 37 °C. The protocol: (§1) Enzyme was equilibrated in 0.1 M phosphate buffer, pH 6.0 at 37 °C. All compounds were prepared in DMSO. Various concentrations of compounds were added in the reaction mixture separately. The reactions were incubated for 30 min and the activity was estimated by the usual enzyme assay at pH 6.0 using a-N-benzoyl-D,L-arginine-2-naphthylamide (BANA) as substrate.

In the next test the target is Cathepsin B (Capra hircus, UniProt H9B8T9). Briefly: Enzymatic activity assay. The conditions noted are these: pH 6; 37 °C. The protocol:
as §1

For the compound `O=C(c1ccccc1)N1N=C(c2ccccc2)CC1c1ccccc1` (stereo not given) [N-benzoyl-3,5-diphenylpyrazoline (2a)], the Ki is 3200 nM at Cathepsin H and 1150 nM at Cathepsin B.
For the compound `O=C(c1ccccc1)N1N=C(c2ccccc2)CC1c1ccccc1Cl` (stereo not given) [N-benzoyl-5-(-2'-chlorophenyl)-3-phenylpyrazoline (2b)], the Ki came to 1890 nM at Cathepsin H and 775 nM on Cathepsin B.
On the same counts, the results for `COc1ccccc1C1CC(c2ccccc2)=NN1C(=O)c1ccccc1` (stereo not given) [N-benzoyl-5-(-2'-methoxyphenyl)-3-phenylpyrazoline (2e)] are 9650 nM and 4900 nM.
As to `O=C(c1ccccc1)N1N=C(c2ccccc2)CC1c1ccccc1[N+](=O)[O-]` (stereo not given) [N-benzoyl-5-(-2'-nitrophenyl)-3-phenylpyrazoline (2h)], the Ki on Cathepsin H was 1440 nM; on Cathepsin B, 572 nM.
The like results for `O=C(c1ccccc1)N1N=C(c2ccccc2)CC1c1cccc(Cl)c1` (stereo not given) [N-benzoyl-5-(-3'-chlorophenyl)-3-phenylpyrazoline (2c)] were, in that order, 1810 nM and 677 nM.
With `COc1cccc(C2CC(c3ccccc3)=NN2C(=O)c2ccccc2)c1` (stereo not given) [N-benzoyl-5-(-3'-methoxyphenyl)-3-phenylpyrazoline (2f)], the Ki at Cathepsin H is 5030 nM; at Cathepsin B, 1590 nM.
The like results for `O=C(c1ccccc1)N1N=C(c2ccccc2)CC1c1cccc([N+](=O)[O-])c1` (stereo not given) [N-benzoyl-5-(-3'-nitrophenyl)-3-phenylpyrazoline (2i)] were, in that order, 980 nM and 195 nM.
Regarding `O=C(c1ccccc1)N1N=C(c2ccccc2)CC1c1ccc(Cl)cc1` (stereo not given) [N-benzoyl-5-(-4'-chlorophenyl)-3-phenylpyrazoline (2d)], the results for the Ki on Cathepsin H and at Cathepsin B were 3010 nM and 925 nM, respectively.
As to `COc1ccc(C2CC(c3ccccc3)=NN2C(=O)c2ccccc2)cc1` (stereo not given) [N-benzoyl-5-(-4'-methoxyphenyl)-3-phenylpyrazoline (2g)], the figures for the Ki on Cathepsin H and on Cathepsin B were 4100 nM and 1280 nM, respectively.
On the same counts, the results for `O=C(c1ccccc1)N1N=C(c2ccccc2)CC1c1ccc([N+](=O)[O-])cc1` (stereo not given) [N-benzoyl-5-(-4'-nitrophenyl)-3-phenylpyrazoline (2j)] are 1270 nM and 287 nM.
The like results for `O=CN1N=C(c2ccccc2)CC1c1ccccc1` (stereo not given) [N-formyl-3,5-diphenylpyrazoline (1a)] were, in that order, 174 nM and 22.7 nM.
On the same counts, the results for `O=CN1N=C(c2ccccc2)CC1c1ccccc1Cl` (stereo not given) [N-formyl-5-(-2'-chlorophenyl)-3-phenylpyrazoline (1b)] are 135 nM and 18 nM.
As for `COc1ccccc1C1CC(c2ccccc2)=NN1C=O` (stereo not given) [N-formyl-5-(-2'-methoxyphenyl)-3-phenylpyrazoline (1e)], the results for the Ki at Cathepsin H and on Cathepsin B were 387 nM and 66.8 nM, respectively.
The like results for `O=CN1N=C(c2ccccc2)CC1c1ccccc1[N+](=O)[O-]` (stereo not given) [N-formyl-5-(-2'-nitrophenyl)-3-phenylpyrazoline (1h)] were, in that order, 96.3 nM and 14.1 nM.
On the same counts, the results for `O=CN1N=C(c2ccccc2)CC1c1cccc(Cl)c1` (stereo not given) [N-formyl-5-(-3'-chlorophenyl)-3-phenylpyrazoline (1c)] are 130 nM and 14.6 nM.
On the same counts, the results for `COc1cccc(C2CC(c3ccccc3)=NN2C=O)c1` (stereo not given) [N-formyl-5-(-3'-methoxyphenyl)-3-phenylpyrazoline (1f)] are 272 nM and 45.5 nM.
For `O=CN1N=C(c2ccccc2)CC1c1cccc([N+](=O)[O-])c1` (stereo not given) [N-formyl-5-(-3'-nitrophenyl)-3-phenylpyrazoline (1i)], the values for the Ki on Cathepsin H and at Cathepsin B were 51.9 nM and 1.1 nM, respectively.
Turning to `O=CN1N=C(c2ccccc2)CC1c1ccc(Cl)cc1` (stereo not given) [N-formyl-5-(-4'-chlorophenyl)-3-phenylpyrazoline (1d)], the results for the Ki at Cathepsin H and on Cathepsin B were 137 nM and 21.1 nM, respectively.
The like results for `COc1ccc(C2CC(c3ccccc3)=NN2C=O)cc1` (stereo not given) [N-formyl-5-(-4'-methoxyphenyl)-3-phenylpyrazoline (1g)] were, in that order, 221 nM and 44.8 nM.
On the same counts, the results for `O=CN1N=C(c2ccccc2)CC1c1ccc([N+](=O)[O-])cc1` (stereo not given) [N-formyl-5-(-4'-nitrophenyl)-3-phenylpyrazoline (1j)] are 58 nM and 11.3 nM.

The Ki is a dissociation constant, usually derived from enzyme kinetics or from competition with a known ligand. Low readings indicate tighter binding, high ones weaker binding.
